Test results: article PMC9448371, “Synthesis and biological activity evaluation of 3-(hetero) arylideneindolin-2-ones as potential c-Src inhibitors” (Journal of Enzyme Inhibition and Medicinal Chemistry, 2022)
Read-outs that look alike come from different tables or passages of the source.

Columns and labels:
c-Src = target: T1, c-Src (Homo sapiens, UniProt P12931); assay: c-Src kinase inhibition assay (ADP-Glo Kinase Assay); type: biochemical; conditions: for IC50: 100 μM ATP, read-out: ID50 (the source's name); for Ki: calculated from ID50 assuming fully ATP-competitive inhibition
T1 construct: His6 (N); purchased Merck-Millipore 14–326
T1 sequence (P12931 whole entry): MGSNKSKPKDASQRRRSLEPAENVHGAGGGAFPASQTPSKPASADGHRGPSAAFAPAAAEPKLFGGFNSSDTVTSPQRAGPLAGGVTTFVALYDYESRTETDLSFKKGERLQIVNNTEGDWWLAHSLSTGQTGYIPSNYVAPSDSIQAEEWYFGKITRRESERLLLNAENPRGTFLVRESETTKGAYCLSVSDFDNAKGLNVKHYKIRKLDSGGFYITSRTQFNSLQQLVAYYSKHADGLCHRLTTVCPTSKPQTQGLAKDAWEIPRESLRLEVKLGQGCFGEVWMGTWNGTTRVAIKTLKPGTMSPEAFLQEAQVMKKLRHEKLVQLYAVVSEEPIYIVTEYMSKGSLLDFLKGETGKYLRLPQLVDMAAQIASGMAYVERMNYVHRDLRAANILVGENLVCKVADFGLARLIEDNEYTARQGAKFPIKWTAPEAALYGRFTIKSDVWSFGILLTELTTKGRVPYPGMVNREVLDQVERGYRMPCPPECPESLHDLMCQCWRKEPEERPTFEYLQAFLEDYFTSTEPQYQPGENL
Procedure: To avoid peptide adsorption to the plastic surface, protein low-binding tubes were used. ADP-Glo Kinase Assay (Promega) was then used to detect kinase activity accordingly with manufacturer’s instruction with minor modifications. In details, reactions were transferred to white 384 well-plates and stopped by adding 10 µL of ADP-Glo Reagent (Promega) for 50 min at rt. 20 μL of Detection Reagent (Promega) was then added for 30 min and the reaction read using GloMax Discover microplate reader (Promega). Data were plotted using GraphPad Prism 5.0. […] Compounds tested were assumed to act as fully ATP-competitive inhibitors. Therefore, Ki values were calculated accordingly to Equation (2).

[1] = 100 μM compound, in-house collection screen, read-out: % Inhibition Src (100 μM)
[2] = 100 µM compound, Table 2, read-out: % Inhibition 100 µM
[3] = 10 µM compound, Table 3, tested as E/Z mixtures
[4] = 100 µM compound, Table 3, tested as E/Z mixtures, read-out: % Inhibition 100 µM
[5] = 100 µM compound, Table 3, tested as E/Z mixtures, 100 µM

CC(=O)c1cccc(-c2nc3n(n2)CC(c2ccccc2)=NN3)c1 [Compound 13]
inhibition at 100 µM (c-Src; [1]): 90%
IC50 (c-Src; Table 1): 50 µM

COc1cc(OC)c(/C=C2/C(=O)Nc3ccccc32)c(OC)c1 [Compound 25]
inhibition at 10 µM (c-Src; 10 µM compound, Table 2): 23.1 ± 5.55%
inhibition at 100 µM (c-Src; [2]): 35.8 ± 3.69%

O=C1/C(=C\C=C\c2ccc(-c3ccccc3)cc2)c2ccccc2N1O [Compound 23]
inhibition at 10 µM (c-Src; 10 µM compound, Table 2): 22.8 ± 2.94%
inhibition at 100 µM (c-Src; [2]): 57.4 ± 6.31%

O=C1Nc2cc(Cl)ccc2C1=Cc1ccc(O)cc1 [Compound 35, 6-chloro-3–(4-hydroxybenzylidene)indolin-2-one]
inhibition at 10 µM (c-Src; [3]): 37.9 ± 0.35%
inhibition at 100 µM (c-Src; [4]): 86.9 ± 2.5%
IC50 (c-Src; Table 3): > 10 µM
melting point: 330 to 331 °C (dec.)

O=C1Nc2cc(Cl)ccc2C1=Cc1ccc(-c2ccccc2)s1 [Compound 48, 6-chloro-3-((5-phenylthiophen-2-yl)methylene)indolin-2-one]
inhibition at 10 µM (c-Src; [3]): 12.8 ± 1.32%
inhibition at 100 µM (c-Src; [4]): 87.7 ± 3.04%
melting point: 233 to 234 °C

O=C1Nc2ccccc2C1=Cc1ccc(-c2ccccc2)s1 [Compound 27, 3-((5-phenylthiophen-2-yl)methylene)indolin-2-one]
inhibition at 10 µM (c-Src; 10 µM compound, Table 2): 25.3 ± 9.71%
inhibition at 100 µM (c-Src; [2]): 45.6 ± 7.85%
melting point: 257 to 258 °C

NC(=O)n1ccc2ccc(N3CCCC3)nc21 [Compound 4]
inhibition at 100 µM (c-Src; [1]): 4%

NC(=O)n1ccc2ccc(-c3ccc(F)cc3)nc21 [Compound 1]
% Inhibition Src (100 μM) (c-Src; 100 μM compound, in-house collection screen, listed as C00001, 100 µM): 58.1%
inhibition at 100 µM (c-Src; [1]): ~58%

COc1cc2c(cc1OC)C(c1ccc(OC(C)=O)cc1)CC(=O)N2 (stereo not shown) [Compound 12]
inhibition at 100 µM (c-Src; [1]): 40%

O=C1Nc2cc(Cl)ccc2C1=Cc1ccc(OCc2ccccc2)cc1 [Compound 37, 3–(4-(benzyloxy)benzylidene)-6-chloroindolin-2-one]
inhibition at 10 µM (c-Src; [3]): 16.9 ± 13.9%
inhibition at 100 µM (c-Src; [4]): 84.27 ± 0.82%
melting point: 239 to 240 °C (dec.)

O=C1Nc2cc(Cl)ccc2C1=Cc1ccc(C(=O)O)cc1 [Compound 36, 4-((6-chloro-2-oxoindolin-3-ylidene)methyl)benzoic acid]
inhibition at 10 µM (c-Src; [3]): 4.15 ± 1.28%
% Inhibition 100 µM (c-Src; [5]): very low activity
inhibition at 100 µM (c-Src; [4]): 47.2 ± 9.33%
melting point: 271 to 272 °C (dec.)

COc1ccc(-c2nc3n(n2)CC(c2ccccc2)=NN3)cc1 [Compound 14]
% Inhibition Src (100 μM) (c-Src; 100 μM compound, in-house collection screen): did not affect the enzyme activity

NC(=O)c1cc2cccc(-c3ccccc3)c2[nH]1 [Compound 3]
inhibition at 100 µM (c-Src; [1]): 34.8%

O=C1Nc2cc(Cl)ccc2C1=Cc1ccc(OCc2ccc(C(=O)O)cc2)cc1 [Compound 47, 4-((4-((6-chloro-2-oxoindolin-3-ylidene)methyl)phenoxy)methyl)benzoic acid]
inhibition at 10 µM (c-Src; [3]): 63.4 ± 1.06%
% Inhibition 100 µM (c-Src; 100 µM compound, Table 3, tested as E/Z mixtures, listed as C00042, 100 µM): 93.88 ± 0.58%
inhibition at 100 µM (c-Src; [4]): 94%
IC50 (c-Src; Table 3): 5.31 µM
Ki (c-Src; Table 3): 3.58 µM

NC(=O)Nc1ccn([C@@H]2O[C@H](CO)CC2(F)F)c(=O)n1 [Compound 6]
inhibition at 100 µM (c-Src; [1]): 10.3%

COc1cc2c(cc1OC)C(=Cc1ccc(-c3ccccc3)cc1)C(=O)N2 [Compound 30, 3-([1,1′-biphenyl]-4-ylmethylene)-5,6-dimethoxyindolin-2-one]
inhibition at 10 µM (c-Src; 10 µM compound, Table 2): 9.39 ± 19.2%
inhibition at 100 µM (c-Src; [2]): 42 ± 8.91%
melting point: 231 to 232 °C

Cc1ccc(C2=CCNC(=O)C3C2c2ccccc2N3C)cc1 (stereo not shown) [Compound 16]
inhibition at 100 µM (c-Src; [1]): 0.6%

O=C(Nc1ccccc1)Nc1ccc(/C=C2\C(=O)Nc3ccccc32)cc1 [Compound 9]
inhibition at 100 µM (c-Src; [1]): 84%

NC(=O)Nc1ccn([C@H]2C[C@H](O)[C@@H](CO)O2)c(=O)n1 [Compound 5]
inhibition at 100 µM (c-Src; [1]): 1.8%

O=C1Nc2cc(Cl)ccc2C1=Cc1cccc(Oc2ccccc2)c1 [Compound 38, 6-chloro-3–(3-phenoxybenzylidene)indolin-2-one]
inhibition at 10 µM (c-Src; [3]): 31.5 ± 3.16%
inhibition at 100 µM (c-Src; [4]): 53.6 ± 12.9%
melting point: 188 to 189 °C

O=C1Nc2cc(Cl)ccc2/C1=C/c1cc(Br)c(O)c(Br)c1 [Compound 26]
inhibition at 10 µM (c-Src; 10 µM compound, Table 2): 67%
% Inhibition 10 µM (c-Src; 10 µM compound, Table 2, listed as C00026, 10 µM): 67.03 ± 0.10%
% Inhibition 100 µM (c-Src; 100 µM compound, Table 2, listed as C00026, 100 µM): 94.70 ± 0.30%
inhibition at 100 µM (c-Src; [2]): 95%
IC50 (c-Src; Table 2): 5.63 µM
Ki (c-Src; Table 2): 3.8 µM

O=C1c2cc(=O)c3cc(O)ccc3n2C2CCCN12 (stereo not shown) [Compound 18]
inhibition at 100 µM (c-Src; [1]): 15.5%

NC(=O)n1ccc2ccc(-c3ccccc3F)nc21 [Compound 2]
inhibition at 100 µM (c-Src; [1]): 28.6%

O=C1C(=Cc2cccc(Oc3ccccc3)c2)c2ccccc2N1O [Compound 22, 1-hydroxy-3–(3-phenoxybenzylidene)indolin-2-one]
inhibition at 10 µM (c-Src; 10 µM compound, Table 2): 32.1 ± 3.53%
inhibition at 100 µM (c-Src; [2]): 64.6 ± 3.8%

CN(C)c1nsc2c1C(=O)c1ccccc1C2=O [Compound 10]
% Inhibition Src (100 μM) (c-Src; 100 μM compound, in-house collection screen, 100 µM): 43%
% Inhibition Src (100 μM) (c-Src; 100 μM compound, in-house collection screen, listed as C00004, 100 µM): 43.5%

COc1cc2c(cc1OC)C(=Cc1cc(Br)c(O)c(Br)c1)C(=O)N2 [Compound 29, 3–(3,5-dibromo-4-hydroxybenzylidene)-5,6-dimethoxyindolin-2-one]
inhibition at 10 µM (c-Src; 10 µM compound, Table 2): 39.8 ± 3.16%
inhibition at 100 µM (c-Src; [2]): 78.6 ± 1.32%

N#Cc1ccc(C=C2C(=O)Nc3cc(Cl)ccc32)cc1 [Compound 32, 4-((6-chloro-2-oxoindolin-3-ylidene)methyl)benzonitrile]
inhibition at 10 µM (c-Src; [3]): 35.7 ± 9.66%
inhibition at 100 µM (c-Src; [4]): 89 ± 1.35%
IC50 (c-Src; Table 3): > 10 µM
melting point: 310 °C (dec.)

O=C(Nc1ccccc1)Nc1ccc(/C=C2\C(=O)N(O)c3ccccc32)cc1 [Compound 8]
inhibition at 100 µM (c-Src; [1]): 83.2%
IC50 (c-Src; Table 1): 12.5 µM

O=C1/C(=C\c2ccc(-c3ccccc3)cc2)c2ccccc2N1O [Compound 7]
inhibition at 100 µM (c-Src; [1]): 77.3%

O=C1/C(=C/c2ccc(-c3ccccc3)cc2)CCN1O [Compound 24]
inhibition at 10 µM (c-Src; 10 µM compound, Table 2): 34.2 ± 0.6%
inhibition at 100 µM (c-Src; [2]): 87.5 ± 7.41%

COC(=O)c1ccc(COc2ccc(C=C3C(=O)Nc4cc(Cl)ccc43)cc2)cc1 [Compound 44, Methyl-4-((4-((6-chloro-2-oxoindolin-3-ylidene)methyl)phenoxy)methyl)benzoate]
inhibition at 10 µM (c-Src; [3]): 41 ± 10.3%
% Inhibition 100 µM (c-Src; [5]): good activity
inhibition at 100 µM (c-Src; [4]): 92.1 ± 3.84%
melting point: 201 to 202 °C

O=C(O)COc1ccc(C=C2C(=O)Nc3cc(Cl)ccc32)cc1 [Compound 46, 2–(4-((6-Chloro-2-oxoindolin-3-ylidene)methyl)phenoxy)acetic acid]
inhibition at 10 µM (c-Src; [3]): 0%
% Inhibition 100 µM (c-Src; 100 µM compound, Table 3, tested as E/Z mixtures, listed as C00041, 100 µM): 70.56 ± 4.80%
inhibition at 100 µM (c-Src; [4]): 70%
melting point: 197 °C (dec.)

O=C1Nc2cc(Cl)ccc2C1=Cc1ccc(OCC2CC2)cc1 [Compound 45, 6-Chloro-3–(4-(cyclopropylmethoxy)benzylidene)indolin-2-one]
inhibition at 10 µM (c-Src; [3]): 14.4 ± 2.09%
% Inhibition 100 µM (c-Src; [5]): almost inactive
inhibition at 100 µM (c-Src; [4]): 34.4 ± 13.3%
melting point: 231 to 232 °C

NC(=O)c1noc2c1CCCC2O (stereo not shown) [Compound 19]
inhibition at 100 µM (c-Src; [1]): 12.8%

CCCN1CC2=C(CC(C)(C)CC2=O)N(c2ccc(C(N)=O)cc2)C1 [Compound 20]
inhibition at 100 µM (c-Src; [1]): 7.7%

Nc1nsc2c1C(=O)c1ccccc1C2=O [Compound 11]
inhibition at 100 µM (c-Src; [1]): 2.2%
